{"source": "patent US20230272345A1", "about": "“SELF-ASSEMBLED CELL SHEET CONSTRUCTS AND METHODS OF MAKING THEREOF” (Caro Meats Inc., priority 2020, published 2023)", "key": {"C2C12 cells [1]": {"test_system": "C2C12 cells", "assay": "Effect of Lat-B on cytoskeleton reorganization / morphology of C2C12 cells (brightfield microscopy)", "assay_type": "cell-based", "protocol": "(§1) Difference in cytoskeleton reorganization of differentiated cells vs. undifferentiated ones was studied by treating cells with Latrunculin-B (Lat-B) (Abcam, ab144291). C2C12 cells grown in GM and the partially differentiated ones in DM were treated with 100 nM Lat-B in GM and DM, respectively, for 1 hr at D1 and microscopy was performed using inverted microscope in brightfield mode. Effect of cytoskeleton reorganization on detachment of the sheets was also studied by treating the cells with 50 and 100 nM of Lat-B in DM during the 24 hrs before delamination. Lat-B stock solution was prepared by dissolving 100 μg in 1 mL DMSO."}, "C2C12 cells [2]": {"test_system": "C2C12 cells", "settings": "100 nM in DM, Nowak et al. 2009; cited from earlier work"}, "C2C12 cells [3]": {"test_system": "C2C12 cells", "assay": "Effect of Lat-B treatment during the 24 hrs before delamination on detachment / sheet formation", "assay_type": "cell-based", "protocol": "In order to start the delamination process DM was replaced with acidic medium (medium A) (DM with 0.1% V/V acetic acid, final pH of ˜6) and samples were incubated for 5-10 min at 37° C. At this point that sheets started to delaminate the process was accelerated by gentle shaking of the well plate. Process could be accelerated by applying shear force using gentle pipetting of medium to the edges of the wells. Immediately after delamination was completed, medium A was replaced with basic medium (medium B, final pH of ˜8) (DM with 0.1% V/V 0.1 M sodium hydroxide in deionized water) in order to prevent samples from forming clumps. After 5 min of treatment with medium B, samples were transferred to neutral medium (medium N, pH of 7.4) (DM without any pH adjustment). In case of stacks, the required number of sheets, either 2 layers of cell sheets (double-layer constructs) or 4 layers (quadruple-layer constructs), were stacked on top of each other by simply dragging them using a tweezer and placing them on each other. This process was also performed in abundant amounts of medium B and after stacking was done, most of the media was aspirated to let the sheets settle down because of their weight for 5 more minutes and then extra medium N was added (FIG. 1B). Images of sheets were taken 1 hr after delamination/stacking and 24 hrs later using a stereomicroscope (Infinity Optical Systems). Diameter of the sheets was used using ImageJ at these time points to study effect of number of layers on shrinkage pattern of the constructs.\nas §1"}}, "data": [{"molecule": "C/C1=C/C(=O)O[C@@H]2C[C@@H](CC[C@H](C)/C=C\\CC1)O[C@@](O)([C@@H]1CSC(=O)N1)C2", "note": "[Lat-B, Latrunculin-B]", "values": [{"measurement": "Morphology after 24 hr of treatment", "setting": "C2C12 cells [1]; 50 nM Lat-B in DM, 24 hr (D1 to D2)", "value": "slightly round"}, {"measurement": "Morphology during the first few hours", "setting": "C2C12 cells [1]; 50 nM Lat-B in DM, first few hours (data not shown)", "value": "did not show significant changes in their morphology"}, {"measurement": "Morphology of partially differentiated cells", "setting": "C2C12 cells [1]; 100 nM Lat-B in DM, 1 hr at D1, partially differentiated C2C12", "value": "changed very fast to round cells and eventually they formed clumps of cells"}, {"measurement": "Morphology after 24 hrs of treatment", "setting": "C2C12 cells [1]; 100 nM Lat-B in DM, 24 hrs (D1 to D2)", "value": "regained their stretched morphology after 24 hrs of treatment but were still rounder compared to untreated cells"}, {"measurement": "Morphology of undifferentiated cells", "setting": "C2C12 cells [1]; 100 nM Lat-B in GM, 1 hr at D1, undifferentiated C2C12", "value": "only became slightly round"}, {"measurement": "Fusion of C2C12 cells", "setting": "C2C12 cells [2]", "value": "would not fuse to each other"}, {"measurement": "Delamination / sheet formation", "setting": "C2C12 cells [3]; 50 nM Lat-B in DM for 24 hrs before delamination", "value": "started to delaminate, but the sheets were fragile and broke to smaller pieces"}, {"measurement": "Delamination / sheet formation", "setting": "C2C12 cells [3]; 50 nM Lat-B in DM for 24 hrs before delamination, listed as Latrunculin-B", "value": "delaminated but were fragile"}, {"measurement": "Delamination / sheet formation", "setting": "C2C12 cells [3]; 100 nM Lat-B in DM for 24 hrs before delamination", "value": "did not form sheets at all"}, {"measurement": "Delamination / sheet formation", "setting": "C2C12 cells [3]; 100 nM Lat-B in DM for 24 hrs before delamination, listed as Latrunculin-B", "value": "did not form continuous sheets"}]}]}
